Earlier results on one compound are cited in patent US20100179115A1, “USE OF A GLUCOCORTICOID RECEPTOR II ANTAGONIST TO TREAT DEPRESSION IN PATIENTS TAKING IL-2” (Corcept Therapeutics, Inc., priority 2006, published 2010).

SMILES strings stand for the structures.

For data set [1] the following is noted: in one study (Kawai).
In data set [2] the test system is IL-1 induced memory deficits. The following applies: Song 2002.
The test system of a further data set is severe major depression. The conditions noted are these: four patients, one completed, no control group; Murphy 1993.

Consider `CC#C[C@]1(O)CC[C@H]2[C@@H]3CCC4=CC(=O)CCC4=C3[C@@H](c3ccc(N(C)C)cc3)C[C@@]21C` [Mifepristone, 17-beta-hydroxy-11-beta-(4-dimethyl-aminophenyl)-17-alpha-(1-propynyl)-estra-4,9-dien-3-one], for which the “fraction of the daily dose excreted in the urine” value in data set [1] is “less than 0.5%”. For the same compound, the “recovery of rats that did not recover from the deleterious effects of IL-1” value in data set [2] (after one or two treatments) is given as “complete recovery”. The “effect on learning and memory impairments associated with IL-1 administration” value in data set [2] (rats, i.c.v. injection immediately prior to IL-1) is “significant reduction in learning and memory impairments”. For the same compound, the “effectiveness in treating depression” value in the data set with severe major depression is “no clear evidence that RU486 was effective”.
